From paper PMC9287434, “Inhibition of NMDA receptors through a membrane-to-channel path” (Nature Communications, 2022)
Counter-ions that a name gives are not always drawn.

Assays:
cultured neurons = system: cultured neurons; set-up: method as in PMID 8570022; settings: cultured neurons held at −70 mV; read-out: IC50 (previous value); cited from earlier work
GluN1/2A receptors [1] = biological target: T1, GluN1/2A receptors (Rattus norvegicus, UniProt P35439+Q00959); assay: Traditional channel block (coapplication of drug and agonists), tsA201 cells; assay type: cell-based
T1 construct: expressed in transfected cells; host or cells: tsA201 cells (HEK 293 variant)
Method: (§1) Wildtype or mutant GluN1/2A receptors were used for all tsA201 cell experiments. 12–24 h after plating, tsA201 cells were transiently co-transfected using FuGENE6 Transfection Reagent (Promega) with mammalian expression plasmids that contained cDNAs encoding enhanced green fluorescent protein (EGFP in pRK7) for identification of transfected cells, the rat GluN1-1a subunit (referred to as GluN1; GenBank X63255 in pcDNA3.1), and the rat GluN2A subunit (GenBank M91561 in pcDNA1). For some experiments cells were transfected with GluN1 and EGFP:pIRES:GluN2A (a generous gift from Dr. Kasper Hansen (Hansen, unpublished)), which was constructed by inserting EGFP in pIRES (Clontech) under transcriptional control of the CMV promoter, and rat GluN2A cDNA (GenBank D13211) after the IRES sequence. Voltage clamp recordings were performed on tsA201 cells 12–48 h after transfection.
(§2) Pipettes were pulled from borosilicate capillary tubing (Sutter Instruments) on a Flaming Brown P-97 microelectrode puller (Sutter Instruments) and polished with a heated filament to a resistance of 2–5 MΩ. Whole-cell recordings were made from cells expressing eGFP identified by epifluorescence illumination on an inverted Zeiss Axiovert microscope. Cells were held at a Vm of −65 mV (corrected for a liquid junction potential of −6 mV) unless otherwise indicated. Whole-cell currents were recorded using an Axopatch 200B patch-clamp amplifier (Molecular Devices). Series resistance was compensated 80–90% using the prediction and correction circuitry. […] NMDAR responses were activated by fast perfusion of 1 mM glutamate (tsA201 cells) or 100 μM NMDA (cultured neurons).

GluN1/2A receptors [2] = biological target: T1, GluN1/2A receptors; assay: MCI protocol, whole-cell recording from GluN1/2A NMDAR-expressing tsA201 cells; assay type: cell-based
Method: as §1, §2
Solutions were delivered to cells using a ten-barrel fast perfusion system. […] If channel blocker remained in the extracellular solution after the 1-s wash, measurements of MCI could have been contaminated by inhibition due to traditional open channel block.
We averaged minima of IControl2/IControl1 and IControl1/IControl2 to control for any possible rundown or runup of NMDAR response. For pH jump experiments, to control also for possible delayed effects of the pH jump on NMDAR responses, the minimum IMCI/IControl value was measured using an additional set of experiments.

NMDARs = settings: cited from earlier work
[3] = system: native NMDARs in cultured neurons; assay: MCI protocol, neurons in primary culture; assay type: cell-based, rat; settings: 1 μM MK-801, pH 7.2, cultured neurons, 100 μM NMDA
[4] = pKa, charged/uncharged fraction in aqueous solution; assay type: physicochemical
Excerpt: [36]). […] We tested this prediction by measuring the dependence of MCI on extracellular pH. A similar approach was used to study membrane partitioning of local anesthetics during VGSC inhibition[23],[24],[27].

[5] = biological target: T2, GluN1/2A(M630W) receptors (Rattus norvegicus, UniProt P35439+Q00959, M630W); assay: Traditional [memantine]-inhibition curve, GluN1/2A(M630W)
[6] = set-up: method as in PMID 7086822; settings: measured pKa; cited from earlier work
[7] = biological target: T3, GluN1/2A(M630A) receptors (Rattus norvegicus, UniProt P35439+Q00959, M630A); assay: Traditional [memantine]-inhibition curve, GluN1/2A(M630A)
[8] = biological target: T2, GluN1/2A(M630W) receptors; assay: MCI protocol, GluN1/2A(M630W)
[9] = cited from earlier work
[10] = biological target: T3, GluN1/2A(M630A) receptors; assay: MCI protocol, GluN1/2A(M630A)
[11] = system: native NMDARs in cultured neurons; settings: cited from earlier work
NMDAR = settings: 30 μM intracellular memantine; cited from earlier work
[12] = pH 7.2, WT, −65 mV, read-out: traditional IC50
[13] = constant pH 9.0, 1 mM TMM, 165 μM DMM

T1 sequence (Q00959 23-1464, other chains not shown): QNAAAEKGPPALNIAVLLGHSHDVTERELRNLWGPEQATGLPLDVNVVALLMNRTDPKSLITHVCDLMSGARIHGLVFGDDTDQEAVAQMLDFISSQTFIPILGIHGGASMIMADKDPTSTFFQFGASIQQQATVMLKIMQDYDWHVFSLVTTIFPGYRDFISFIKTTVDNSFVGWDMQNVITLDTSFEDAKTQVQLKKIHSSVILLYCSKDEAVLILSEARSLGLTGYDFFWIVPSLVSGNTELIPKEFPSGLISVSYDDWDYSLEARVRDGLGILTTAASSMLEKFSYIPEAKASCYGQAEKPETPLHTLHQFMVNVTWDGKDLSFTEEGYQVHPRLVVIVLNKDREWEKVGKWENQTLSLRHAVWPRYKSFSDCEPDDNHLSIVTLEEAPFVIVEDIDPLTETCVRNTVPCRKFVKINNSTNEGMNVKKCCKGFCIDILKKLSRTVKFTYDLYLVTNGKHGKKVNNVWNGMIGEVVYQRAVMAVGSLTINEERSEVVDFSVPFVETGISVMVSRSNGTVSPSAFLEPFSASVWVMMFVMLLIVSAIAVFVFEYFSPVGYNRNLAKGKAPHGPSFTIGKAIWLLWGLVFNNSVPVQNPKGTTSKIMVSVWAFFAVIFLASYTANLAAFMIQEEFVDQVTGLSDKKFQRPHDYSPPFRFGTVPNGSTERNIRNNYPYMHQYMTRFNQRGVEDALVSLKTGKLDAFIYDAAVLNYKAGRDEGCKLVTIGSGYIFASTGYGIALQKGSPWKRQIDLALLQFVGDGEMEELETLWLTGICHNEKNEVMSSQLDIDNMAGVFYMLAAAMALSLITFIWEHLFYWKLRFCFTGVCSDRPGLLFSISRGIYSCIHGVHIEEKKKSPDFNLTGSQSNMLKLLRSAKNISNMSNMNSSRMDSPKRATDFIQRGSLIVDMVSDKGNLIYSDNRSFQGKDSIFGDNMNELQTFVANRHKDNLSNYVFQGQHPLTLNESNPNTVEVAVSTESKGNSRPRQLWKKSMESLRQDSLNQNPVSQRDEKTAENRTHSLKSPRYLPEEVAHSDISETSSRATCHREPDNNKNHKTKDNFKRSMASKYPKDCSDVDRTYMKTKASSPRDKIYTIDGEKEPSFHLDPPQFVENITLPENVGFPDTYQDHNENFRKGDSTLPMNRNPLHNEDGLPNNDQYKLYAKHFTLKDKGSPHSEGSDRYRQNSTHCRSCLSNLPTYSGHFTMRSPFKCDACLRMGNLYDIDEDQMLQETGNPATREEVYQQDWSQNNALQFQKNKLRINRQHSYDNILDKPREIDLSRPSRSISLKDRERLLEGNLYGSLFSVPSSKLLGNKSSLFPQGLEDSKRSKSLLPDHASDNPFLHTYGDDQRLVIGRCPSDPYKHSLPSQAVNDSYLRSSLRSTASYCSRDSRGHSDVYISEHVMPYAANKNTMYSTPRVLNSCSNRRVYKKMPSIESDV
T3 sequence (Q00959 23-1464 M630A, other chains not shown): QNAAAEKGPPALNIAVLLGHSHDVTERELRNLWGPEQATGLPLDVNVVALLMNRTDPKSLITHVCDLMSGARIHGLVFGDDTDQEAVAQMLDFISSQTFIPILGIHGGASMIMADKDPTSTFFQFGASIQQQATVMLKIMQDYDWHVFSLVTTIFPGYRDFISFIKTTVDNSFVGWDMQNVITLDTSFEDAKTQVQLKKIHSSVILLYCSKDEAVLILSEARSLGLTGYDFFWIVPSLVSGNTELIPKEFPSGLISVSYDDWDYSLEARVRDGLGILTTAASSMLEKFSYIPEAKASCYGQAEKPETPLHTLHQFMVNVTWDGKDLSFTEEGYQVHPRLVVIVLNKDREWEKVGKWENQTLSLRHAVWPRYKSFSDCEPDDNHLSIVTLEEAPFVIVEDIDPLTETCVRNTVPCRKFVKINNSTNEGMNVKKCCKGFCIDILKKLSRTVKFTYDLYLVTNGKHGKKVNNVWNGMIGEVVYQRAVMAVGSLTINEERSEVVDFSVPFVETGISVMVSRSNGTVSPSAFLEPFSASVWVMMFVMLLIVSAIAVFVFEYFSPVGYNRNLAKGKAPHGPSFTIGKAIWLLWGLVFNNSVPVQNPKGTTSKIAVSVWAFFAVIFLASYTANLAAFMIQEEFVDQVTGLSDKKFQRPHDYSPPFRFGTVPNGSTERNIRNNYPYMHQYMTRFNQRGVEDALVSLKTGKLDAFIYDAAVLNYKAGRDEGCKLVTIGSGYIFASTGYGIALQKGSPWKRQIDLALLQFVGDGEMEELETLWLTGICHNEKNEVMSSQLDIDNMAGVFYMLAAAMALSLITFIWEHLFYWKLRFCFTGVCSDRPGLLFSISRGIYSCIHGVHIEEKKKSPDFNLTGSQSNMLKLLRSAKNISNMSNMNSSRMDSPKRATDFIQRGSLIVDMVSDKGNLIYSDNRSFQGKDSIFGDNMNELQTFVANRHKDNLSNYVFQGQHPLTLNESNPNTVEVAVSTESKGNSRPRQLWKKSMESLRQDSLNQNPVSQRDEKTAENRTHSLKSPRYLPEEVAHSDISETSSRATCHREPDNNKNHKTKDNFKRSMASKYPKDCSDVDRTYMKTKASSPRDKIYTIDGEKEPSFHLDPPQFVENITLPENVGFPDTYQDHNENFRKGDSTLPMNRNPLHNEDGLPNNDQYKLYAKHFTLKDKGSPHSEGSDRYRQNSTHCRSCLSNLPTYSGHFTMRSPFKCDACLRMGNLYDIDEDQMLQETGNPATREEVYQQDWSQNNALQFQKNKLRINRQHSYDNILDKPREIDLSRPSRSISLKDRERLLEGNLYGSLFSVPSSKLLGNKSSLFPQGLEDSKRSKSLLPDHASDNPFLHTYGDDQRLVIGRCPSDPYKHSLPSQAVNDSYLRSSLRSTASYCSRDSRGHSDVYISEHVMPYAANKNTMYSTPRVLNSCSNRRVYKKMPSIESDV
T2 sequence (Q00959 23-1464 M630W, other chains not shown): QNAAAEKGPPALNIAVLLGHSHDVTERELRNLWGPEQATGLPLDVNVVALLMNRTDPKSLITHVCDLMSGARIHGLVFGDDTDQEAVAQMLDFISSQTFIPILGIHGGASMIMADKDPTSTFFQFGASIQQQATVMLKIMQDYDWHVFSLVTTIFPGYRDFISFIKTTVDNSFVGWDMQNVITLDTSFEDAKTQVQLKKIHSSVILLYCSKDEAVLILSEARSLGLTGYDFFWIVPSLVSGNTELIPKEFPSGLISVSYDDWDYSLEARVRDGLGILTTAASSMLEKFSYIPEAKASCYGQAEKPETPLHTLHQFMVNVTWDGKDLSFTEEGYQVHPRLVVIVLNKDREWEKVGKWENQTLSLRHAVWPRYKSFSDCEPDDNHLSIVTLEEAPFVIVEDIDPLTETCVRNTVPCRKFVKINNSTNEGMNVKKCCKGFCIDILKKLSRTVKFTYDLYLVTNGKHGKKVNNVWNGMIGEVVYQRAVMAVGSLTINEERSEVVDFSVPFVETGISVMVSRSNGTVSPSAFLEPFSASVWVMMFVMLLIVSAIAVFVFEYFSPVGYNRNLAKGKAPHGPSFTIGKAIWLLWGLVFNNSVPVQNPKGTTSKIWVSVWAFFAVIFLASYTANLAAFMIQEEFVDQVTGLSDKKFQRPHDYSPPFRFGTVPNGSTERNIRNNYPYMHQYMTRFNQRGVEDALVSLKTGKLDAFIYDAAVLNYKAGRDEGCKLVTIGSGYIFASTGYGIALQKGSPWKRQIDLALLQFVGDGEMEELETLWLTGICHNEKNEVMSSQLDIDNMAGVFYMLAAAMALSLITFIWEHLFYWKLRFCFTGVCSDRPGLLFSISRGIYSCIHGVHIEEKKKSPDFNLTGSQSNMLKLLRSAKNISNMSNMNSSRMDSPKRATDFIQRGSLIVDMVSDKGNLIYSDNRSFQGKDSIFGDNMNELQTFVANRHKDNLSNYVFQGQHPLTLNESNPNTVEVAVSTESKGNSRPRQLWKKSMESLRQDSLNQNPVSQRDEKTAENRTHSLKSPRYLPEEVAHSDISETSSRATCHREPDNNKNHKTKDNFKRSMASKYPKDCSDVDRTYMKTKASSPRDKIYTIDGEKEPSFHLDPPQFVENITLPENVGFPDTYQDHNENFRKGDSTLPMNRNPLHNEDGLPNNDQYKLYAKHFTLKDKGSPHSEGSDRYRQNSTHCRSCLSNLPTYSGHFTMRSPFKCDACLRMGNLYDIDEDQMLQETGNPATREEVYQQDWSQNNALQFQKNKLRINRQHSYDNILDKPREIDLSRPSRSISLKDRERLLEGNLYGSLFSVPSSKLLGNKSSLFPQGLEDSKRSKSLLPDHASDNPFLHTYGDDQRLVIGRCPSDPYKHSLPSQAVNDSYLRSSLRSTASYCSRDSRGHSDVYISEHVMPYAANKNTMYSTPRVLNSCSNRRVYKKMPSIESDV

## CN(C)C12CC3CC(C)(CC(C)(C3)C1)C2.Cl [DMM, N,N,3,5-tetramethyladamantan-1-amine hydrochloride]
Cultured neurons
  IC50: 28.4 ± 1.4 µM
other
  melting point: 180 °C
GluN1/2A receptors [1]; [12]
  IC50: 16.8 ± 1.5 µM
GluN1/2A receptors [2]; 165 μM DMM, constant pH 9.0
  Min IMCI/IControl: 0.402 ± 0.037
GluN1/2A receptors [2]; [13]
  MCI exhibited (in words): strong MCI

## CC12CC3CC(C)(C1)CC([N+](C)(C)C)(C3)C2 (as salt: iodide) [TMM, N,N,N,3,5-pentamethyladamantan-1-ammonium iodide]
other
  melting point: > 200 °C (dec.)

## CN1CC[C@@]23CCCC[C@@H]2[C@@H]1Cc1ccc(O)cc13 [dextrorphan]
GluN1/2A receptors [2]; 50 μM dextrorphan, pH 7.2
  Min IMCI/IControl: 0.549 ± 0.043
GluN1/2A receptors [2]; pH 7.2
  MCI exhibited (in words): displayed MCI

## c1ccc(C2(N3CCCCC3)CCCCC2)cc1 [PCP, phencyclidine]
GluN1/2A receptors [2]; 10 μM PCP, pH 7.2
  Min IMCI/IControl: 0.409 ± 0.063
GluN1/2A receptors [2]; pH 7.2
  MCI exhibited (in words): displayed MCI

## CC12CC3CC(C)(C1)CC([N+](C)(C)C)(C3)C2 [TMM, N,N,N,3,5-pentamethyladamantan-1-ammonium iodide]
GluN1/2A receptors [1]; [12]
  IC50: 72.3 ± 14.2 µM
GluN1/2A receptors [2]; 1 mM TMM, constant pH 9.0
  Min IMCI/IControl: 0.987 ± 0.039
GluN1/2A receptors [2]; [13]
  MCI exhibited (in words): no MCI

## CNC1(c2ccccc2Cl)CCCCC1=O (stereo not shown) [ketamine]
NMDARs
  MCI exhibited (in words): does not exhibit MCI

## C[C@]12N[C@H](Cc3ccccc31)c1ccccc12 [MK-801]
[3]
  Min IMCI/IControl: 0.612 ± 0.019
GluN1/2A receptors [2]; 1 μM MK-801, pH 7.2
  Min IMCI/IControl: 0.459 ± 0.035
  τM of MCI onset: 1002 ± 135 ms
GluN1/2A receptors [2]; 10 μM MK-801, pH 7.2
  Min IMCI/IControl: 0.097 ± 0.029
  τM of MCI onset: 311 ± 59 ms
GluN1/2A receptors [2]; pH 7.2
  MCI exhibited (in words): displayed MCI
  τM faster at 10 μM than at 1 μM MK-801: ~ 3 fold

## CC12CC3CC(C)(C1)CC(N)(C3)C2 [memantine]
[4]; pH 6.3
  Uncharged %: 0.008%
  [Uncharged] at 100 μM: 8 nM
[4]; pH 7.2
  Uncharged %: 0.063%
  [Uncharged] at 100 μM: 63 nM
[4]; pH 9.0
  Uncharged %: 3.8%
  [Uncharged] at 100 μM: 3800 nM
[5]
  IC50: 1.49 ± 0.2 µM
[6]
  pKa: 10.4
[7]
  IC50: 1.65 ± 0.09 µM
[8]
  IC50: 148 ± 2.8 µM
GluN1/2A receptors [1]; traditional IC50, pH 7.2, WT, −65 mV
  IC50: 1.71 ± 0.06 µM
GluN1/2A receptors [1]; traditional IC50, pH 9.0, WT
  IC50: 3.43 ± 0.61 µM
[9]
  LogP: ~ 3
[10]
  IC50: 51.4 ± 5.1 µM
NMDARs; 100 μM memantine, 35 mV
  MCI at depolarized Vm (in words): nearly abolished
[11]
  MCI of native NMDARs (in words): subject to MCI
NMDAR
  NMDAR inhibition by intracellular drug (in words): not to cause NMDAR inhibition
GluN1/2A receptors [2]; 100 μM memantine, pH 7.2, from point-by-point ratios
  time constant of current decay following the preinhibition peak: 46.4 ± 4.1 ms
GluN1/2A receptors [2]; 100 μM memantine, pH 7.2, likely faster than decay time constant
  time constant of MCI onset: < 46.4 ms
GluN1/2A receptors [2]; Memantine MCI IC50, pH 7.2 (Fig. 1h data set)
  IC50: 71 ± 1.7 µM
GluN1/2A receptors [2]; Memantine MCI IC50, pH 9.0 jump
  IC50: 8.77 ± 3.26 µM
GluN1/2A receptors [2]; Memantine MCI IC50 of WT receptors, pH 7.2 (additional data set, Fig. 6h)
  IC50: 68.6 ± 4.8 µM
GluN1/2A receptors [2]; tsA201, pH 6.3, read-out: Memantine MCI IC50
  potency estimated from few doses: 841 ± 5 µM

## CC12CC3CC1(C)C1(C)CC3(CN)CC21C [RL-208]
GluN1/2A receptors [2]; 20 μM RL-208, pH 7.2
  Min IMCI/IControl: 0.275 ± 0.017
GluN1/2A receptors [2]; pH 7.2
  MCI exhibited (in words): displayed MCI
